Test results reported in publication PMC10790228 (Journal of medical virology, 2022).

Key:
HIV-1 = settings: cited from earlier work
[1] = Metabolic stability in human liver microsomes; settings: HLM, 0.5 mg protein/mL; for Remaining (NCF = 60min): no co-factor (no NADPH)
wild-type HIV-2 = experiment: Anti-HIV-2 activity in MT-4 cells, MTT method; type: cell-based; settings: read-out: EC50 HIV-2
[2] = cited from earlier work
HIV-1 CA hexamer = settings: read-out: KD Hexamer; SPR, average of at least 3 replicates
[3] = biological target: binding of CPSF6 to CA hexamer; experiment: SPR-based competition assay with CPSF6; parameters: species or system HIV-1; settings: read-out: IC50 inhibition of CPSF6 binding to CA hexamer
[4] = human, microsomes
HIV-1 NL4.3 virus = experiment: Single-round infection assay, early and late stage; type: cell-based; settings: compound at 1 μM, average of 3 replicates

Structure (SMILES)	anti-HIV-1 activity (HIV-1)	T1/2 [1]	Remaining (T = 60min) [1]	Remaining (NCF = 60min) [1]	CLint(liver) ([1]; scaled from CLint(mic))	EC50 (wild-type HIV-2)	metabolic stability T1/2 [2]	CC50 (MT-4 cells)	Kd (HIV-1 CA hexamer)	IC50 [3]	EC50 (HIV-1; read-out: anti-HIV-1 potency EC50)	CLint(mic) [4]	Infection (%) Early-stage (HIV-1 NL4.3 virus)	Infection (%) Late-stage (HIV-1 NL4.3 virus)
CC(C)(C#Cc1ccc(-c2ccc(Cl)c3c(NS(C)(=O)=O)nn(CC(F)(F)F)c23)c([C@H](Cc2cc(F)cc(F)c2)NC(=O)Cn2nc(C(F)(F)F)c3c2C(F)(F)[C@@H]2C[C@H]32)n1)S(C)(=O)=O [GS-6207]	picomolar													
Cc1[nH]c2ccccc2c1CC(=O)N[C@@H](Cc1ccccc1)C(=O)N(C)c1ccccc1 [PF-74]		42 s	0.0%	106.1%	1903.1 mL/min/kg	3790 ± 390 nM	30 to 78 s	> 294000 nM	47 ± 0.6 nM	26.6 nM	520 to 900 nM	2114.6 µL/min/mg	0.07 ± 0.01%	58.19 ± 12.54%
C[C@]12CC[C@H]3[C@@H](CCC4=CC(=O)CC[C@@]43C)[C@@H]1CC[C@@H]2O [Testosterone]			4.8%	95.8%										
